Measured values published in US4727150A, “Pyridyl methylsulfinyl benzimidazole derivatives” (Takeda Chemical Industries, Ltd., priority 1984, dated 1988).

Columns and labels:
[1] = tested on: gastric mucosa; experiment: Ethanol-induced gastric mucosal injury in rats (action of protecting gastric mucosa); format: in vivo, Male Sprague-Dawley rats; conditions: Rattus norvegicus, po; 6 rats per group; 1, 3, 10 and 30 mg/kg into stomach; 100% ethanol 1 ml orally 30 min later; lesions measured 60 min after ethanol; read-out: Action of protecting gastric mucosa ID50
Procedure: As a method of determining the protecting ability of gastric mucosa, gastric mocosal injury induced by ethanol [Robert A., Gastroenterology 77, 761 (1979)] is often used. This method was applied to evaluation of the compounds of this invention. Male Sprague-Dawley rats of 7-weeks old were fasted for 24 hours. These animals were administered test compounds into stomach by using a gastric tube. After 30 minutes, 1 ml of 100% ethanol was administered orally. The animals were killed by carbon dioxide gas 60 minutes after ethanol administration. The stomach was removed together with the lower part of esophagus and the duodenum. The esophagus was clipped, 10 ml of 1% formalin solution was instilled into the stomach from the duodenum, and then the duodenum was clipped. The whole stomach was immersed in 1% formalin solution. About 15 minutes later, the stomachs were opened along the greater curvature. The length of the lesions which occurred in the gastric antral mucosa was measured under a dissecting microscope with a square-grid eye piece (×10). The sum total length of the individual lesions in each animal was measured, and the average value per group was calculated. Based on the difference between the average value of each group and that of the control group, the inhibition rate was determined. The test compound was suspended in a 5% gum arabic solution, and administered in a volume of 2 ml/kg. | ^(a) Using 6 rats per group, each of the test compounds was | administered in a dose of 1, 3, 10 and 30 mg/kg to determine ID50.

[2] = tested on: mice; experiment: Oral toxicity in mice; format: in vivo; conditions: oral administration, 500 mg/kg

CCCCOc1ccnc(C[S+]([O-])c2nc3ccccc3[nH]2)c1 (centres unmarked) [R^1 =H, R^2 =H, R^3 =(CH2)3 CH3, R^4 =H]
ED50 [1]: 9.8 mg/kg

COc1ccc2[nH]c([S+]([O-])Cc3ncc(C)c(OC)c3C)nc2c1 (centres unmarked) [reference compound]
ED50 [1]: 22 mg/kg

CC(C)Oc1ccnc(C[S+]([O-])c2nc3ccccc3[nH]2)c1 (centres unmarked) [R^1 =H, R^2 =H, R^3 =CH(CH3)2, R^4 =H]
ED50 [1]: 1.3 mg/kg

CCCOc1ccnc(C[S+]([O-])c2nc3ccccc3[nH]2)c1 (centres unmarked) [R^1 =H, R^2 =H, R^3 =(CH2)2 CH3, R^4 =H]
fatal effect [2]: no fatal effect
ED50 [1]: 7.2 mg/kg

CC(C)Oc1ccnc(C[S+]([O-])c2nc3cc(F)ccc3[nH]2)c1 (centres unmarked) [R^1 =5-F, R^2 =H, R^3 =CH(CH3)2, R^4 =H]
ED50 [1]: 8.8 mg/kg

CCCCCCCCOc1ccnc(C[S+]([O-])c2nc3ccccc3[nH]2)c1 (centres unmarked) [R^1 =H, R^2 =H, R^3 =(CH2)7 CH3, R^4 =H]
ED50 [1]: 1.6 mg/kg

COc1ccnc(C[S+]([O-])c2nc3cc(C(F)(F)F)ccc3[nH]2)c1C (centres unmarked) [R^1 =5-CF3, R^2 =CH3, R^3 =CH3, R^4 =H, reference compound]
ED50 [1]: 24 mg/kg

CCCCCCOc1ccnc(C[S+]([O-])c2nc3ccccc3[nH]2)c1 (centres unmarked) [R^1 =H, R^2 =H, R^3 =(CH2)5 CH3, R^4 =H]
ED50 [1]: 1.6 mg/kg

CCCOc1ccnc(C[S+]([O-])c2nc3ccccc3[nH]2)c1C (centres unmarked) [2-[3-methyl-4-propoxy-2-pyridyl)methylsulfinylbenzimidazole]
ED50 [1]: 12.5 mg/kg

CC(C)Oc1ccnc(C[S+]([O-])c2nc3cc(C(F)(F)F)ccc3[nH]2)c1 (centres unmarked)
ED50 [1]: 5.8 mg/kg
